This is an account of results in US20240208912A1 (Mirati Therapeutics, Inc., priority 2021, published 2024).

The structures appear in SMILES notation.

For the first test, the system named is HCT116 homozygous MTAP knockout cells. Briefly: Proliferation assay (CellTiter-Glo, 10 days) in HCT116 homozygous MTAP knockout cells. Conditions: CellTiter-Glo after 10 days of treatment, read-out: Proliferation IC50 (nM) HCT116 MTAP_KO. It is filed as cell-based. As to the method: HCT116 cells were genetically engineered to knock out the function of both MTAP alleles using a CRISPR/Cas9 system and an sgRNA targeting the MTAP gene. Following Cas9/MTAP sgRNA transduction, clones were screened to confirm that each allele of the MTAP gene had been inactivated (i.e., homozygous MTAP knock out) creating an MTAP-deficient cell.
Control samples were analyzed in parallel.
Briefly, on Day 0, 250 HCT116 parental or HCT116 homozygous MTAP knockout cell were seeded in 96 well plates in McCoy's 5A supplemented with […] fetal bovine serum and pen/strep and the cells were incubated overnight at 37° C. plus 5% CO2.
The following day, cells were treated with DMSO vehicle control or a dose response of PRMT5 inhibitors and incubated at 37 C plus 5% CO2 for five days. On Day 6, the cells were trypsinized and split 1:10 into new 96-well plates with fresh medium containing the same concentration of PRMT5 inhibitor and incubated for an additional 5 days at 37° C. plus 5% CO^2.
On Day 11, the viability of the cells was measured using a CTG assay kit (CellTiter-Glo; Promega cat.no G7573) in accordance with the manufacturer's instructions. The IC50 values for each compound after 10 days of treatment were calculated using GraphPad PRISM software.
Background: In ATP-based viability assays light output follows the ATP content of the culture.
For the molecule `Cn1ncc(-c2ccc3c(=O)[nH]nc(CN)c3c2)c1-c1c(C#N)cc2cccnc2c1Cl` (atropisomer, axis not shown; (M)) [Example 16-84, (M)-7-(4-(4-(aminomethyl)-1-oxo-1,2-dihydrophthalazin-6-yl)-1-methyl-1H-pyrazol-5-yl)-8-chloroquinoline-6-carbonitrile], the IC50 turned out to be 123 nM.
On to `Cn1ncc(-c2ccc3c(=O)[nH]nc(CN)c3c2)c1-c1c(C#N)cc2ncccc2c1Cl` (atropisomer, axis not shown; (M)) [Example 16-86, (M)-6-(4-(4-(aminomethyl)-1-oxo-1,2-dihydrophthalazin-6-yl)-1-methyl-1H-pyrazol-5-yl)-5-chloroquinoline-7-carbonitrile], for which the IC50 came out at 183 nM.
On to `Cc1c(F)c(-c2c(-c3ccc4c(=O)[nH]nc(CN)c4c3)cnn2C)c(C#N)c2cc(Cl)cnc12` (atropisomer, axis not shown; (P)) [Example 16-33], for which the IC50 was 626 nM.
Still for that read-out and setting: under `Cn1ncc(-c2ccc3c(=O)[nH]nc(CN)c3c2)c1-c1c(C#N)cc2ncccc2c1Cl` (atropisomer, axis not shown; (P)) [Example 16-85, (P)-6-(4-(4-(aminomethyl)-1-oxo-1,2-dihydrophthalazin-6-yl)-1-methyl-1H-pyrazol-5-yl)-5-chloroquinoline-7-carbonitrile] stands 4380 nM; under `Cn1ncc(-c2ccc3c(=O)[nH]nc(CN)c3c2)c1-c1cccc2c1COCC2(C)O` (atropisomer, axis not shown; (P)) [Example 16-104, (P)-4-(aminomethyl)-6-(5-(4-hydroxy-4-methylisochroman-8-yl)-1-methyl-1H-pyrazol-4-yl)phthalazin-1(21)-one], 3450 nM; under `Cn1ncc(-c2ccc3c(=O)[nH]nc(CN)c3c2)c1-c1cc2ccccn2c1C#N` [Example 4-227, 2-(4-(4-(aminomethyl)-1-oxo-1,2-dihydrophthalazin-6-yl)-1-methyl-1H-pyrazol-5-yl)indolizine-3-carbonitrile], 2370 nM.

Still in this test, the particulars now being: Homo sapiens, HCT-116, 240 h, CellTiter-Glo after 10 days of treatment, read-out: Proliferation IC50 (nM) HCT116 MTAP_KO.
As to `Cn1ncc(-c2ccc3c(=O)[nH]nc(CN)c3c2)c1-c1cccc2c1COCC2(C)O` (atropisomer, axis not shown; (M)) [Example 16-103, (M)-4-(aminomethyl)-6-(5-(4-hydroxy-4-methylisochroman-8-yl)-1-methyl-1H-pyrazol-4-yl)phthalazin-1(2H)-one], the IC50 worked out at 4000 nM.
Turning to `Cn1ncc(-c2ccc3c(=O)[nH]nc(CN)c3c2)c1-c1c(F)cc2c(c1C#N)OCO2` (atropisomer, axis not shown; (P)) [Example 16-87, (P)-5-[4-[4-(aminomethyl)-1-oxo-2H-phthalazin-6-yl]-2-methyl-pyrazol-3-yl]-6-fluoro-1,3-benzodioxole-4-carbonitrile], the IC50 amounted to 158 nM.
For the molecule `Cn1ncc(-c2ccc3c(=O)[nH]nc(CN)c3c2)c1-c1cc(Cl)c2c(c1C#N)OCCC2` [Example 4-261, 7-[4-[4-(aminomethyl)-1-oxo-2H-phthalazin-6-yl]-2-methyl-pyrazol-3-yl]-5-chloro-chromane-8-carbonitrile], the IC50 was determined as 81 nM.
Same read-out and setting: under `COCc1ccc2c(C#N)c(-c3c(-c4ccc5c(=O)[nH]nc(CN)c5c4)cnn3C)sc2c1` [Example 4-271, 2-(4-(4-(aminomethyl)-1-oxo-1,2-dihydrophthalazin-6-yl)-1-methyl-1H-pyrazol-5-yl)-6-(methoxymethyl)benzo[b]thiophene-3-carbonitrile] stands 289 nM.
Regarding `Cn1ncc(-c2ccc3c(=O)[nH]nc(CN)c3c2)c1-c1sc2cccnc2c1C#N` [Example 4-275, 2-(4-(4-(aminomethyl)-1-oxo-1,2-dihydrophthalazin-6-yl)-1-methyl-1H-pyrazol-5-yl)thieno[3,2-b]pyridine-3-carbonitrile], the IC50 came to 1880 nM.
Take `Cn1ncc(-c2ccc3c(=O)[nH]nc(C4(N)COC4)c3c2)c1-c1sc2ccccc2c1C#N` [Example 9-9, 2-(4-(4-(3-aminooxetan-3-yl)-1-oxo-1,2-dihydrophthalazin-6-yl)-1-methyl-1H-pyrazol-5-yl)benzo[b]thiophene-3-carbonitrile]: the IC50 turned out to be 10000 nM.
